Here are results for one molecule from article PMC12311259, “Antifibrotic effects of specific targeting of the 5‐hydroxytryptamine 2B receptor (5‐HT2BR) in murine models and ex vivo models of scleroderma skin” (Arthritis & Rheumatology (Hoboken, N.j.), 2025).

In one experiment the target is T1, 5-HT2CR (Homo sapiens, UniProt P28335).
T1 construct: 355200 (GTPγS); host or cells: CHO-K1
The experiment can be described thus: Radioligand binding assay, CHO-K1 cells overexpressing human receptor (Eurofins Panlabs). The following applies: read-out: inhibition constant (Ki), 5-HT2CR. As to the method: (§1) The binding profile of AM1476 was evaluated for binding to human 5‐HT2AR, 5‐HT2BR, and 5‐HT2CR in radioligand binding assays using Chinese hamster ovary (CHO‐K1) cells overexpressing human receptors (in vitro assays 271650, 271700, and 271800; Eurofins Panlabs Discovery). AM1476 was evaluated at 0.1, 1, 10, 100, 1,000, and 10,000 nM (5‐HT2BR) or at 1, 10, 100, 1,000, and 10,000 nM (5‐HT2AR and 5‐HT2CR). Human 5‐HT2AR and 5‐HT2BR functionality was measured with homogeneous time‐resolved fluorescence quantification of IP1 accumulation in CHO‐K1 cells (in vitro assays 355250 and 355260). Compounds creating a ≥50% inhibition of 5‐HT (5 nM) induced fluorescence response specified receptor antagonist activity. 5‐HT2CR functionality was assessed with [35S] GTPγS for quantification of bound GTPγS. Compounds creating a ≥50% inhibition of 5‐HT (100 nM) induced [35S] GTPγS binding response specified receptor antagonist activity (in vitro assay 355200). AM1476 was evaluated at 0.1, 0.3, 1, 3, 10, 30, and 300 nM (5‐HT2BR) or 1, 10, 100, 1,000, and 10,000 nM (5‐HT2AR and 5‐HT2CR). A nonlinear least squares regression analysis was used to determine half‐maximal inhibitory concentration (IC50) values. Mouse 5‐HT2BR functionality was measured in a calcium influx assay (Charles River) in CHO‐KI cells expressing the mouse 5‐HT2BR using a calcium sensitive dye and a fluorescence imaging plate reader (FLIPRTETRA) instrument. AM1476 was evaluated at 0.3, 1, 3, 10, 30, 100, 300, and 1,000 nM.

A further experiment concerns the target T2, human 5-HT2AR (Homo sapiens, UniProt P28223).
T2 construct: 355250 (IP1); host or cells: CHO-K1
Described as above. The conditions noted are these: read-out: inhibition constant (Ki), 5-HT2AR. As to the method:
as §1

In the next experiment the target is T3, human 5-HT2BR (Homo sapiens, UniProt P41595).
T3 construct: 355260 (IP1); host or cells: CHO-K1
The experiment is described as above. The conditions noted are these: read-out: inhibition constant (Ki), human 5-HT2BR. As to the method: as §1

A further experiment deals with T4, Mouse 5-HT2BR (Mus musculus, UniProt Q02152).
T4 construct: host or cells: CHO-K1
The experiment in a line: Calcium influx functionality assay (FLIPR) in CHO-K1 cells expressing mouse 5-HT2BR. The format is cell-based. The following applies: agonist 5 nM α-methylserotonin. As to the method: as §1, with “A nonlinear least squares regression analysis was used to determine half‐maximal inhibitory concentration (IC50) values.” left out, “nM. […]” for “nM.”

The target in experiment [1] is Serotonin (5-Hydroxytryptamine) 5-HT4 (gp) (Cavia porcellus, UniProt O70528). The experiment in a line: Receptor binding, Eurofins Panlabs 272000. Also on record: species or system guinea pig. From the text: (§2) Effects were considered significant if AM1476's mean value was three or more SDs above the vehicle control mean in the agonist assay or three or more SDs below the positive control agonist (5‐nM α‐methylserotonin) mean in the antagonist assay. AM1476 was screened for selectivity against approximately 200 targets using a Eurofins Panlabs Spectrum screen panel including enzymatic and receptor binding assays.

In experiment [2] the target is T5, Serotonin (5-Hydroxytryptamine) 5-HT5A (hu) (Homo sapiens, UniProt P47898).
T5 construct: Eurofins Panlabs 272100
The experiment can be described thus: Receptor binding, Eurofins Panlabs 272100.
Text: as §2

In experiment [3] the target is T6, Serotonin (5-Hydroxytryptamine) 5-HT6 (hu) (Homo sapiens, UniProt P50406).
T6 construct: 318000 (adenylyl cyclase)
The experiment can be described thus: Receptor binding, Eurofins Panlabs 272200.
Text: as §2

Another experiment concerns the target T7, Adrenergic α1D (hu) (Homo sapiens, UniProt P25100).
T7 construct: Eurofins Panlabs 302080
The experiment can be described thus: Functionality assay, IP1, Eurofins Panlabs 302080. The format is cell-based.

A further experiment deals with T8, Adrenergic β1 (hu) (Homo sapiens, UniProt P08588).
T8 construct: Eurofins Panlabs 302230
The experiment can be described thus: Functionality assay, Adenylyl Cyclase, Eurofins Panlabs 302230. The format is cell-based.
Text: as §2

Another experiment has as its system Tsk-1 mice. The experiment in a line: Tsk-1 mouse model of skin fibrosis. The format is in vivo. As to the method:
AM1476 was dissolved in sterile distilled water for the ex vivo and in vivo experiments. A concentration of 30 μM was applied for the ex vivo experiment. For the in vivo experiments, 1, 3, or 10 mg/kg was administered orally once or twice daily.
In the murine Tsk‐1 model of SSc, a dominant mutation in the fibrillin 1 gene leads to an SSc‐like disease, with minor inflammatory infiltrates, autoantibody production, and fibrosis of the skin. This model reflects the later stages of SSc characterized by noninflammatory self‐sustaining fibrosis. Eight to 12 mice per group were analyzed. Treatment was initiated at an age of five weeks, and the outcome was analyzed at an age of 10 weeks.[11]
Skin samples were fixed in 4% formalin for six hours and embedded in paraffin. Five‐micrometer sections were cut and stained with hematoxylin and eosin (H&E). The dermal thickness was quantified on H&E‐stained sections using images captured with a light microscope (Nikon eclipse 80i) at 100‐fold magnification by manually measuring the distance between the epidermal‐dermal junction and the dermal‐subcutaneous fat junction at four sites per mouse.[15], [16] For lung samples, the whole left lung was fixed in 4% formalin for six hours and embedded in paraffin. Five‐micrometer sections were cut and stained with trichrome and sirius red. Histologic readouts were evaluation of the fibrotic area as the percentage of the total lung area in sirius red–stained sections (two sections per mouse) and quantification of pulmonary changes using the Ashcroft score (four sections per mouse).[17], [18]
The amount of collagen protein in skin and lung samples was determined by hydroxyproline assay.[19], [20] After digestion in 6 M HCl for three hours at 120°C, the pH of the samples was adjusted to a pH range of 6–7 with 6 M NaOH. Afterward, 0.06 M chloramine T was added to each sample and incubated for 20 minutes at room temperature. Next, 3.15 M perchloric acid and 20% p‐dimethylaminobenzaldehyde were added, and samples were incubated for an additional 20 minutes at 60°C. The absorbance was determined at 557 nm with a Spectra MAX 190 microplate spectrophotometer. Absolute values were determined using a standard curved generated with type I collagen (Sigma‐Aldrich).
Myofibroblasts are characterized by the expression of α‐smooth muscle actin (α‐SMA). Fibroblasts positive for α‐SMA were detected by immunohistochemistry staining with monoclonal anti–α‐SMA antibodies (clone 1A4, Sigma‐Aldrich). The expression was visualized with horseradish peroxidase–labeled secondary antibodies and 3,3‐diaminobenzidine tetra hydrochloride (Sigma‐Aldrich). Monoclonal mouse IgG antibodies (Calbiochem) were used as controls. Images of sections stained for α‐SMA were captured on a light microscope (Nikon eclipse 80i). The myofibroblast number was manually evaluated at four different areas at 200‐fold magnification. Myofibroblasts were defined as α‐SMA positive, single, and spindle‐shaped cells in the dermis.[5], [21]

[4] abbreviates: all three doses, vs vehicle-treated 10-week-old Tsk-1 mice.

T6 sequence (P50406 whole entry): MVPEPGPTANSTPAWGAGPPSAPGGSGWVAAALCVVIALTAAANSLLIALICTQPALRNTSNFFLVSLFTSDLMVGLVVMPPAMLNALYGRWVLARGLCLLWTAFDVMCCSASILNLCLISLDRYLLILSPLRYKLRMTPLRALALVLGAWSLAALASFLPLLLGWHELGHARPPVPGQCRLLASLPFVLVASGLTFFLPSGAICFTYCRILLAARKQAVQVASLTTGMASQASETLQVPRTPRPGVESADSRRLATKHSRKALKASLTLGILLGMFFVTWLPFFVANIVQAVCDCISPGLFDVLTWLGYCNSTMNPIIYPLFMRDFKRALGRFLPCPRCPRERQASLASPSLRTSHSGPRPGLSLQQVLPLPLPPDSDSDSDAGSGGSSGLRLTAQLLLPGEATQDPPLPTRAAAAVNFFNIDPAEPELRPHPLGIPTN
T8 sequence (P08588 whole entry): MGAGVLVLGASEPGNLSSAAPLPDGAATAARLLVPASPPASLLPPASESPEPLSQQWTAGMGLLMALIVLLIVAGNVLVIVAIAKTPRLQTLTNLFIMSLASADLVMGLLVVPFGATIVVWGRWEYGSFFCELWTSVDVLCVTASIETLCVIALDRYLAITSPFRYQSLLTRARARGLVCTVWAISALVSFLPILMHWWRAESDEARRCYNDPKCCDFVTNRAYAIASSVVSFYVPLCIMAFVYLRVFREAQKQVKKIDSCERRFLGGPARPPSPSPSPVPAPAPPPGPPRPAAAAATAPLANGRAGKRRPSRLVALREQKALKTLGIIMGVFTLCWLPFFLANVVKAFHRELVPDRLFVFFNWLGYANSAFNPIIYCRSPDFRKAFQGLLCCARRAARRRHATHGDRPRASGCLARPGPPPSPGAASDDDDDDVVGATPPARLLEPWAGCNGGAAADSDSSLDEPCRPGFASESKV
Serotonin (5-Hydroxytryptamine) 5-HT4 (gp), sequence (O70528 1-358 limits assumed): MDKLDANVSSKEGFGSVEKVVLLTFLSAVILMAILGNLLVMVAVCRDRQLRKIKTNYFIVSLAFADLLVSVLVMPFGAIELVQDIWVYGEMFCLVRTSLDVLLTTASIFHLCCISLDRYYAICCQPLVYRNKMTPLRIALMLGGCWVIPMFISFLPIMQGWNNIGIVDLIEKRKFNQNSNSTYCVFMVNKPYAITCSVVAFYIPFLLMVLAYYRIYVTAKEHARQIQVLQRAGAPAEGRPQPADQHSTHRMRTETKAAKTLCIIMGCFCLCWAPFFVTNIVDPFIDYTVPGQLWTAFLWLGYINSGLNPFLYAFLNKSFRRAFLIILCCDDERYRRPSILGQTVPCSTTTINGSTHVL
T7 sequence (P25100 whole entry): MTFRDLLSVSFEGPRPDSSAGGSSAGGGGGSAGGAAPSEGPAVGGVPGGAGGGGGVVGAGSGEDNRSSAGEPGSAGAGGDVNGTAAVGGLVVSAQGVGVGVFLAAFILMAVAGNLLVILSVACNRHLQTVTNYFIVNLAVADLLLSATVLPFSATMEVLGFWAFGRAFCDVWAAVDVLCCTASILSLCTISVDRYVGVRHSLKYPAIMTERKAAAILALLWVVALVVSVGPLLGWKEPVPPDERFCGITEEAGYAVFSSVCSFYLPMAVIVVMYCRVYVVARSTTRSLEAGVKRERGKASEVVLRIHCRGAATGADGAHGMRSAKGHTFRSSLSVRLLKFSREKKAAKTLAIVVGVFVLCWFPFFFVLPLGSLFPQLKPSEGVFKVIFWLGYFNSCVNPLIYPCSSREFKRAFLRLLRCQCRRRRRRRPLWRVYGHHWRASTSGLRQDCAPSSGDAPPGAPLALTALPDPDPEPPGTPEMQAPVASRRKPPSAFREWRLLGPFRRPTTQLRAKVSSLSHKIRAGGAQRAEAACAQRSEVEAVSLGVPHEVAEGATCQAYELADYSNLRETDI
T5 sequence (P47898 whole entry): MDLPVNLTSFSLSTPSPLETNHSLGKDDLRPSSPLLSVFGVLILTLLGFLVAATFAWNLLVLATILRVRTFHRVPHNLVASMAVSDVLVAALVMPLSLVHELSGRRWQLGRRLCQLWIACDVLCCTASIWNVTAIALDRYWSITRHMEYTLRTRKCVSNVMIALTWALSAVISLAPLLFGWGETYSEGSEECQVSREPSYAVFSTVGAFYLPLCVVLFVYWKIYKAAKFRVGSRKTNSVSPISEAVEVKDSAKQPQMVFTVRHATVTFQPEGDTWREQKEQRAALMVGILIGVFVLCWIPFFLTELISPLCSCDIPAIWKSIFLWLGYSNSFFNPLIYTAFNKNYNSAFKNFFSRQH
T1 sequence (P28335 33-458): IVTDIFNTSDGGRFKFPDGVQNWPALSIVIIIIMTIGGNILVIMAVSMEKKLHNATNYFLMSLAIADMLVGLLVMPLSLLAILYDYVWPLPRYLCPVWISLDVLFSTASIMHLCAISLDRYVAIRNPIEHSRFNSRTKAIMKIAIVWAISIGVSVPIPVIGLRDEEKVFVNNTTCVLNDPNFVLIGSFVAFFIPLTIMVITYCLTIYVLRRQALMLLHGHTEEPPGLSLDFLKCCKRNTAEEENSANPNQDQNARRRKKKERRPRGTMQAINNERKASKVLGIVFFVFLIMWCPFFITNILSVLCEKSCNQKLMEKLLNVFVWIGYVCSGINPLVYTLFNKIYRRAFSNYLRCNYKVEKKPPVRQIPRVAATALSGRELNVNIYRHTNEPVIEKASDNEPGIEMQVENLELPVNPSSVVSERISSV
T4 sequence (Q02152 whole entry): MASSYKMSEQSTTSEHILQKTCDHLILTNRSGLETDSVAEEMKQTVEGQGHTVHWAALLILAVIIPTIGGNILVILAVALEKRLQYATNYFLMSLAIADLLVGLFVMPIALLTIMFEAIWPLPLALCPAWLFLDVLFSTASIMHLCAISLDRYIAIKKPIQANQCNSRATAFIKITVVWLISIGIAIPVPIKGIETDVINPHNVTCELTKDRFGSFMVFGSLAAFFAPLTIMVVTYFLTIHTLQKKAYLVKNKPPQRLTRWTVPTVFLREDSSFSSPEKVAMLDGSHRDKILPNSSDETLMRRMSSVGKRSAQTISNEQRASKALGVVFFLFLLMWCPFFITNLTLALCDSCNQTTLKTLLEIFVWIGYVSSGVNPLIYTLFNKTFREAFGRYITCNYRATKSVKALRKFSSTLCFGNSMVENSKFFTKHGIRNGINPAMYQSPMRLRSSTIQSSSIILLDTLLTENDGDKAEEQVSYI
T3 sequence (P41595 whole entry): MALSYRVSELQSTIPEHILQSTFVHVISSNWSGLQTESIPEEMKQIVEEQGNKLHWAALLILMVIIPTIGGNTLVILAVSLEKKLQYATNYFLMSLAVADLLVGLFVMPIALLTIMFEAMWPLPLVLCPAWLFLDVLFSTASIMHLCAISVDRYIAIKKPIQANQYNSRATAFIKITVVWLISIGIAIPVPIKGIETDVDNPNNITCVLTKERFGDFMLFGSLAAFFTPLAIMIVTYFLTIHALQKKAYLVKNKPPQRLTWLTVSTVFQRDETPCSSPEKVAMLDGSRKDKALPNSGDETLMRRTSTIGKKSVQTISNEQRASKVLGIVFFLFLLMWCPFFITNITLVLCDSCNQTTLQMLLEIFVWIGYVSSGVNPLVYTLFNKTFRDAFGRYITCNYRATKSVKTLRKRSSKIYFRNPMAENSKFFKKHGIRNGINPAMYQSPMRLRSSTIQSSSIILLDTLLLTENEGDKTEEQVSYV
T2 sequence (P28223 whole entry): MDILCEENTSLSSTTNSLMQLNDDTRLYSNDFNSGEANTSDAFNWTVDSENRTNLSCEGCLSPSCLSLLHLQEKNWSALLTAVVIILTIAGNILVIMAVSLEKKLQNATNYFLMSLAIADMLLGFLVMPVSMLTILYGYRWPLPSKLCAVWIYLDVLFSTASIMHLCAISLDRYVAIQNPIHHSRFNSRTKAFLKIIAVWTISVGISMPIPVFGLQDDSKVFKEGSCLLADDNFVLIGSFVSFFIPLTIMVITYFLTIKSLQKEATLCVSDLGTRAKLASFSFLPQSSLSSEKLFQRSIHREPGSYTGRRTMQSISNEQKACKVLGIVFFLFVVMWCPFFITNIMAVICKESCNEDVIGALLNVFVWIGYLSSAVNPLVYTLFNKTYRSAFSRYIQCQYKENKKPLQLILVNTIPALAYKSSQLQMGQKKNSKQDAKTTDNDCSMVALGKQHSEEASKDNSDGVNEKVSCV

For the molecule `C[C@@H]1CN(C(=N)N)N=C1c1ccc(F)cc1O` [AM1476], the Ki on 5-HT2CR came out at 60 nM; at human 5-HT2AR it was 800 nM; on human 5-HT2BR it was 6 nM. Further, the IC50 is 11.5 nM on Mouse 5-HT2BR, 7760 nM against Adrenergic α1D (hu) and 32500 nM against Adrenergic β1 (hu). Besides, the “% Inhibition at 1 µM, 5-HT4 (gp)” value in [1] (1 µM (value in brackets)) was 34%. For the same molecule, in [1] (10 µM), the “% Inhibition at 10 µM, 5-HT4 (gp)” value is on record as 74%. In addition, the “% Inhibition at 1 µM, 5-HT5A (hu)” value in experiment [2] (1 µM (value in brackets)) worked out at 10%. In addition, in experiment [2] (10 µM), the “% Inhibition at 10 µM, 5-HT5A (hu)” value amounted to 70%. Moreover, in [3] (1 µM (value in brackets)), the “% Inhibition at 1 µM, 5-HT6 (hu)” value is 51%. Besides, in experiment [3] (10 µM), the “% Inhibition at 10 µM, 5-HT6 (hu)” value turned out to be 90%. Besides, on Adrenergic α1D (hu) (at 30 µM), the “agonistic activity, Adrenergic α1D” value was “No significant agonistic activity at 30 µM”. Besides, the “agonistic activity, Adrenergic β1” value on Adrenergic β1 (hu) (at 300 µM) is listed as “No significant agonistic activity at 300 µM”. Also, in the experiment on Tsk-1 mice (10 mg/kg qd or 10 mg/kg bid), the “hydroxyproline content vs five-week-old Tsk-1 mice (pretreatment level)” value was “comparable”. Further, the “hypodermal thickness vs five-week-old Tsk-1 mice (pretreatment level)” value in the experiment on Tsk-1 mice (10 mg/kg qd or 10 mg/kg bid) is reported as “comparable”. Also, the hydroxyproline content entry in the experiment with Tsk-1 mice (setting [4]) is listed as “reduced”. The hypodermal thickening entry in the experiment on Tsk-1 mice (setting [4]) is on record as “reduced”. Also, the myofibroblast counts entry in the experiment with Tsk-1 mice (setting [4]) is recorded as “reduced”.

By Ki is commonly meant a measure of affinity in units of concentration, obtained from inhibition or displacement. In general, IC50 refers to the point on the concentration scale where inhibition reaches its midpoint. Broadly, the % Inhibition is how much of the control response was suppressed. Read a low % Inhibition as a weak effect.
